Experimental data taken from US20040162422A1, “Chemical compounds” (priority 2001, published 2004).

Tests used:
[1] = target: T1, human adenosine A3 receptors (Homo sapiens, UniProt P0DMS8); assay: Reporter gene experiments in CHO cells (CRE/SPAP, inhibition of forskolin-stimulated SPAP production); format: cell-based; settings: ECR = equipotent concentration ratio relative to NECA = 1; agonist potency, CHO CRE/SPAP reporter gene assay
T1 construct: expressed in transfected cells; host or cells: Chinese hamster ovary (CHO) cells with CRE/SPAP/HYG reporter
T1 sequence (P0DMS8 1-318): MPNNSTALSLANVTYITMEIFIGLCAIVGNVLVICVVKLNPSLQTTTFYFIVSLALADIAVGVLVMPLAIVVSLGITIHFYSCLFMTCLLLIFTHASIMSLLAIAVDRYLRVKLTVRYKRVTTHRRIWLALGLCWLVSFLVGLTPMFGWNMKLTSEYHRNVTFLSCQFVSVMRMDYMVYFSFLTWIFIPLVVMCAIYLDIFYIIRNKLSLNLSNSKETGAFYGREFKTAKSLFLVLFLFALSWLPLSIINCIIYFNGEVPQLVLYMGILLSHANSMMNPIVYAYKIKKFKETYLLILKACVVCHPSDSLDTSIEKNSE
Description: The compounds useful in the invention are agonists at the adenosine A1 receptor. Preferably they are selective agonists at the adenosine A1 receptor. By selective is meant that the affinity for the A1 receptor is at least 2 times, preferably 5 times and more preferably 10 times greater than the other adenosine receptor subtypes, particularly A3. Agonist selectivity of compounds against other human adenosine receptors can be determined using Chinese hamster ovary (CHO) cells transfected with the gene for the relevant human adenosine receptor following a method based on that of Castanon, K V. and Spevak, W. (1994) Biochem. Biophys. Res. Commun. 198, 626-631. The CHO cells are also transfected with cyclic AMP response elements promoting the gene for secreted placental alkaline phosphatase (SPAP) (Wood, K V. (1995) Cuff. Opinion. Biotechnology, 6, 50-58). The effect of test compounds is determined by their effects on basal levels of cAMP (A2a) or on forskolin-enhanced cAMP (A1 and A3) as reflected by changes in levels of SPAP. EC50 values for compounds are determined as a ratio to that of the non-selective agonist N-ethyl carboxamidoadenosine (NECA). “Adenosine receptors: New opportunities for future drugs” (S. A. Poulsen et al, Bioorg. Med. Chem,. 1998, 6, 619-641) summarises disease conditions that may be treated with adenosine A1 agonists.
Reporter Gene Experiments in CHO cells
Agonist activity at human adenosine A3 receptors was measured in Chinese hamster ovary (CHO) cells containing the CRE/SPAP/HYG (CRE=cyclic AMP response element; HYG=hygromycin resistance; SPAP=secreted placental alkaline phosphatase) reporter gene elements, which upon stimulation of cAMP levels produced SPAP. A cell line was used which was stably transfected with the human adenosine A3 receptor in addition to the above elements. Cells were plated out in 96-well plates in culture medium and incubated at 37° C. for 1 hour. For measurement of potency, agonists were added to the appropriate wells at a concentration range of approximately 10^−10-10^−5M. 15 Min later, cAMP levels were stimulated by addition of a maximal concentration of forskolin. All cells were then incubated for a further 5 hours at 37° C., and cooled to room temperature, after which a substrate for the phosphatase (para-nitrophenol phosphate, pNPP), which is converted by SPAP to a coloured reagent) was then added and the 96-well plates were read in a plate reader. From these readings, the concentration-dependence of the inhibition by the agonist for forskolin-stimulated SPAP production can be calculated. As with the yeast assays, one of the agonists tested on each 96-well plate was the standard non-selective agonist, N-ethylcarboxamidoadenosine (NECA), and the potency of all test agonists is expressed relative to that of the NECA standard.

[2] = target: T2, human adenosine A1 receptors (Homo sapiens, UniProt P30542); assay: Reporter gene experiments in yeast (agonist activity, β-galactosidase/FDG readout); format: cell-based; set-up: key: equipotent concentration ratio relative to NECA = 1; settings: ECR = equipotent concentration ratio relative to NECA = 1; agonist potency, yeast reporter gene assay
T2 construct: expressed in transfected cells
T2 sequence (P30542 1-326): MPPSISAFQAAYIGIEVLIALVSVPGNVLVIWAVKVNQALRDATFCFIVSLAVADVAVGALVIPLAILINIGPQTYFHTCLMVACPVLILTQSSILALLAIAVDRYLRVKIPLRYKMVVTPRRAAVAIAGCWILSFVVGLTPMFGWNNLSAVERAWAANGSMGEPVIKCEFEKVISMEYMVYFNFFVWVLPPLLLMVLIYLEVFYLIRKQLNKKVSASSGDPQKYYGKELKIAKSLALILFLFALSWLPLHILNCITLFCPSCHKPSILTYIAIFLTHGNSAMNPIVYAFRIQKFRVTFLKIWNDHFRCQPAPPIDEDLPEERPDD
Method: Reporter Gene Experiments in Yeast
Agonist activity at human adenosine A1 receptors was measured in yeast cell lines expressing the adenosine A1 receptor together with a chimeric G-protein which linked receptor stimulation to the expression of the enzyme β-galactosidase. Cells were plated out in 96-well plates in culture medium to which was added 2 mM 3-AT (3-aminotriazole) to limit basal growth in the absence of agonist stimulation, and FDG (fluorescein di-β-D-galactopyranoside) as substrate for β-galactosidase, which converts FDG to fluorescein. For measurement of potency, agonists were added to the appropriate wells at a concentration range of approximately 10^−10-10^−5M and incubated at 30° C. for 18 hours. At this point the amount of fluorescein generated was measured in a spectrophotometer. From these readings, the concentration-dependence of the stimulation by the agonist can be calculated. One of the agonists tested on each 96-well plate was the standard non-selective agonist, N-ethylcarboxamidoadenosine (NECA), and the potency of all test agonists is expressed relative to that of the NECA standard.
(ECR=equipotent concentration ratio relative to NECA=1)

Adenosine A3 receptor ECR* [1]	Adenosine A1 receptor ECR* [2]	Compound
>145	4.79	C#C[C@H]1O[C@@H](n2cnc3c(Nc4cccc(F)c4C)ncnc32)[C@H](O)[C@@H]1O [Example 37, (2R,3R,4S,5R)-5-ethynyl-2-{6-[(3-fluoro-2-methylphenyl)amino]-9H-purin-9-yl}tetrahydrofuran-3,4-diol]
>145	5.45	C#C[C@H]1O[C@@H](n2cnc3c(Nc4cccc(Cl)c4C)ncnc32)[C@H](O)[C@@H]1O [Example 38, (2R,3R,4S,5R)-2-{6-[(3-Chloro-2-methylphenyl)amino]-9H-purin-9-yl}-5-ethynyltetrahydrofuran-3,4-diol]
>168	7.36	C#C[C@H]1O[C@@H](n2cnc3c(Nc4ccc(Cl)cc4C)ncnc32)[C@H](O)[C@@H]1O [Example 39, (2R,3R,4S,5R)-2-{6-[(4-Chloro-2-methylphenyl)amino]-9H-purin-9-yl}-5-ethynyltetrahydrofuran-3,4-diol]
>505	16.94	C#C[C@H]1O[C@@H](n2cnc3c(Nc4cc(Cl)ccc4C)ncnc32)[C@H](O)[C@@H]1O [Example 40, (2R,3R,4S,5R)-2-{6-[(5-chloro-2-methylphenyl)amino]-9H-purin-9-yl}-5-ethynyltetrahydrofuran-3,4-diol]
>188	34.9	C#C[C@H]1O[C@@H](n2cnc3c(Nc4ccc(F)c(F)c4)ncnc32)[C@H](O)[C@@H]1O [Example 43, (2R,3R,4S,5R)-2-{6-[(3,4-Difluorophenyl)amino]-9H-purin-9-yl}-5-ethynyltetrahydrofuran-3,4-diol]
>196	3	(2R,3R,4S,5R)-2-[6-(cyclobutylamino)-9H-purin-9-yl]-5-ethynyltetrahydrofuran-3,4-diol [Example 5]

Compound	Adenosine A3 receptor ECR* [1]	Adenosine A1 receptor ECR* [2]
(2R,3R,4S,5R)-5-Ethynyl-2-{6-[(trans-4-hydroxycyclohexyl)amino]-9H-purin-9-yl}tetrahydrofuran-3,4-diol [Example 19]	>3208	8.57
